The source made the active and inactive calls.
Columns and labels:
Format in all cases: functional
[1] = target: Macrophage colony-stimulating factor 1 receptor (Homo sapiens, UniProt P07333);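 further: value comes from the Navigating the Kinome screening panel, CSF1R member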
[2] = target: Vascular endothelial growth factor receptor 1 (Homo sapiens, UniProt P17948);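 further: measured within a kinome-wide profiling panel, FLT1 as the panel member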
[3] = target: Calcium/calmodulin-dependent protein kinase type II subunit alpha (Homo sapiens, UniProt Q9UQM7); assay: Navigating the Kinome. Panel member name: CAMK2A
[4] = target: Serine/threonine-protein kinase pim-1 (Homo sapiens, UniProt P11309)
[5] = target: Mitogen-activated protein kinase kinase kinase kinase 4 (Homo sapiens, UniProt O95819)
[6] = target: T1, Serine/threonine-protein kinase Chk1 (Homo sapiens, UniProt O14757);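 further: measured as one member of a kinome-wide kinase profiling panel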
T1 sequence (O14757 whole entry): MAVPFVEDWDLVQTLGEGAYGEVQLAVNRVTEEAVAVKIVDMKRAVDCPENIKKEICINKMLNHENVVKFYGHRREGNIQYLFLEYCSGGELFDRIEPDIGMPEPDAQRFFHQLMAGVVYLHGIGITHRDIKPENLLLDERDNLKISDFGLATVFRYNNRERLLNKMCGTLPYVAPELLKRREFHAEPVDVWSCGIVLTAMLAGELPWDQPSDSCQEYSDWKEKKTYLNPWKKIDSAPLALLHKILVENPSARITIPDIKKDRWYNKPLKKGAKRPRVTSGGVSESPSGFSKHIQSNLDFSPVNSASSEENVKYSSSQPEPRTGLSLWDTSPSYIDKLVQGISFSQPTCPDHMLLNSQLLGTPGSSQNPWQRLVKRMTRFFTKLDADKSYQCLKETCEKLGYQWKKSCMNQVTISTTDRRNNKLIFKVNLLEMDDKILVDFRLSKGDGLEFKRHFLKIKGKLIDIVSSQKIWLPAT

[7] = target: 5'-AMP-activated protein kinase catalytic subunit alpha-1 (Homo sapiens, UniProt Q13131)
Sequence of 5'-AMP-activated protein kinase catalytic subunit alpha-1 (Q13131 whole entry): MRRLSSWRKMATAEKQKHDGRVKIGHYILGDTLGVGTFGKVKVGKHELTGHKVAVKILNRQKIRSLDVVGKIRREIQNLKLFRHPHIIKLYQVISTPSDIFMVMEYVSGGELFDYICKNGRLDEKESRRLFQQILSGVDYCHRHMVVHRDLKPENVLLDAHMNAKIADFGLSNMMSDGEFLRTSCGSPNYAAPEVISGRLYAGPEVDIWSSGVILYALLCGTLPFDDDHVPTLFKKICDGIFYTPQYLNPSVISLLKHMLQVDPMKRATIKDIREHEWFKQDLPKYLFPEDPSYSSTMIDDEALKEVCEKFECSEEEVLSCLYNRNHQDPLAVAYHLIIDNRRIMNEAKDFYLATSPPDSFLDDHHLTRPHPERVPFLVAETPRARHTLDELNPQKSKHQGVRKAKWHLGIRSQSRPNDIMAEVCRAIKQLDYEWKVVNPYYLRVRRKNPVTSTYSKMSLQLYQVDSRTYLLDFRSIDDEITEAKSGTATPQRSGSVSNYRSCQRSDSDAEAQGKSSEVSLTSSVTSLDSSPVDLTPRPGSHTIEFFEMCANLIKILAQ

[8] = target: T2, Mitogen-activated protein kinase kinase kinase kinase 2 (Homo sapiens, UniProt Q12851);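 further: measured as one member of a kinome-wide kinase panel, with MAP4K2 as the panel entry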
T2 sequence (Q12851 whole entry): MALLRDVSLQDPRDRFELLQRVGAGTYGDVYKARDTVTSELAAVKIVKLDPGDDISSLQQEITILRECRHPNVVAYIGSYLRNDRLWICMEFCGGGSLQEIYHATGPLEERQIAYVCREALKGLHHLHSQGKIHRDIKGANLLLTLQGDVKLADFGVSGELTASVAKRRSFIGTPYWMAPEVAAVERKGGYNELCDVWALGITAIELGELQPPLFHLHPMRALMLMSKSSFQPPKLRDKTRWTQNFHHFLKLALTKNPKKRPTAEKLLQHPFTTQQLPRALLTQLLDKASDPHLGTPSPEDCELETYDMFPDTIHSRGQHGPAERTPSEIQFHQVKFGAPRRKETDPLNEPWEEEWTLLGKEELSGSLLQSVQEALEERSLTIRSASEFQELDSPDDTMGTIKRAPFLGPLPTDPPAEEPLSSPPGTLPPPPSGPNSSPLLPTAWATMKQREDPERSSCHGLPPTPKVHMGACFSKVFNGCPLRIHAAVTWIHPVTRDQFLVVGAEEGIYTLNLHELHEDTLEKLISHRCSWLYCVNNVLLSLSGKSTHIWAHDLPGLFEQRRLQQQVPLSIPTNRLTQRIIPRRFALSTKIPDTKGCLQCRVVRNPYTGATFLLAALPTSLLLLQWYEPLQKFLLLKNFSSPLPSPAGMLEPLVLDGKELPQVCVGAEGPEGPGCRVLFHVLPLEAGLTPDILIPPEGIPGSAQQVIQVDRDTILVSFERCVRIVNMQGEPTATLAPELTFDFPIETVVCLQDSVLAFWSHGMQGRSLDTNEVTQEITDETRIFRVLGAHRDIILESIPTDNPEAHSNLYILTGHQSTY

Aurora kinase B = Aurora kinase B (Homo sapiens, UniProt Q96GD4)
[9] = target: T3, Serine/threonine-protein kinase D3 (Homo sapiens, UniProt O94806);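 further: determined within a kinase panel screen, with PRKCN as the panel member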
T3 sequence (O94806 whole entry): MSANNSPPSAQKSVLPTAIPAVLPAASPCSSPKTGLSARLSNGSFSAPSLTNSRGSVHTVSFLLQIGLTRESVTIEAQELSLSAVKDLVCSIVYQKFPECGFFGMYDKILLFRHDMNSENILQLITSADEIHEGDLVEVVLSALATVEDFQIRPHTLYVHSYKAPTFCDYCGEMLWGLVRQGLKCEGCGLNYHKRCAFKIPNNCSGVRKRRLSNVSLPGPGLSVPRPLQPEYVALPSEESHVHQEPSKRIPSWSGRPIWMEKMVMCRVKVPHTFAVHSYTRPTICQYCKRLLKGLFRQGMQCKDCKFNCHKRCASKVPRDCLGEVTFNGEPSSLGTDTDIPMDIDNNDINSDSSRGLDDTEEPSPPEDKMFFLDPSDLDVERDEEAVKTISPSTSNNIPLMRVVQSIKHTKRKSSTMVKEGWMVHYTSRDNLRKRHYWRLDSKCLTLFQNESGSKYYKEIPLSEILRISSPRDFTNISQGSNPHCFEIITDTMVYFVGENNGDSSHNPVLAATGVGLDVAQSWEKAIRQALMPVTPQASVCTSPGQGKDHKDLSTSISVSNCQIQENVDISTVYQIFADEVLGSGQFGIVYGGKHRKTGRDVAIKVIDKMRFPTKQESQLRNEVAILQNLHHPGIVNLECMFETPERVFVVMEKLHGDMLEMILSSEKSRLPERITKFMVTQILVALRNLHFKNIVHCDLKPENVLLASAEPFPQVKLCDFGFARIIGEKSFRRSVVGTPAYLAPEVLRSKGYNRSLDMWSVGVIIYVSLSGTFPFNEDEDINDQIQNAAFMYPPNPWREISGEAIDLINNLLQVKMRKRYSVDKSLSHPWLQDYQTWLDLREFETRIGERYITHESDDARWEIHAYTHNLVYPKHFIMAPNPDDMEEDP

[10] = target: Fibroblast growth factor receptor 1 (Homo sapiens, UniProt P11362)
Sequence of Fibroblast growth factor receptor 1 (P11362 whole entry): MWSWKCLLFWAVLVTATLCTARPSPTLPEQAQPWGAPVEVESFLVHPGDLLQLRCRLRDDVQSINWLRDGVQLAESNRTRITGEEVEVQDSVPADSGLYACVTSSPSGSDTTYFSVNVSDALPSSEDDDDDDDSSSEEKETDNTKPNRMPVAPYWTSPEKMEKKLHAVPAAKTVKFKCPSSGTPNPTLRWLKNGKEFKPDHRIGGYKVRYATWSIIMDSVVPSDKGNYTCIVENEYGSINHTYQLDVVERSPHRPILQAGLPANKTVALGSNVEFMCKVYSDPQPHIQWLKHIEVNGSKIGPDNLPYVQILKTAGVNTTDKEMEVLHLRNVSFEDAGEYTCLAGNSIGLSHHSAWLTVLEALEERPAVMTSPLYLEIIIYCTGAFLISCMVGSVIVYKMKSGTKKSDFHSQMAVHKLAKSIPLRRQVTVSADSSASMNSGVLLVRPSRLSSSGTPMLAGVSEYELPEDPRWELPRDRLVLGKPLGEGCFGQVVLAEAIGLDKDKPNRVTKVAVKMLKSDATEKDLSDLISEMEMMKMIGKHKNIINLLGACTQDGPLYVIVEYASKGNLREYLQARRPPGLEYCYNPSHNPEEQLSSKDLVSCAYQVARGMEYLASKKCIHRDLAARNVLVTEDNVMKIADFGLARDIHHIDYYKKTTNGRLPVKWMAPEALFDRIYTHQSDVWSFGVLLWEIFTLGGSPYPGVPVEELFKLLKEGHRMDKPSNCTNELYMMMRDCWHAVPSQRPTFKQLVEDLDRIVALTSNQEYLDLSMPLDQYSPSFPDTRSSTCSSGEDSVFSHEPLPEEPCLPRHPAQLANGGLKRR

[11] = target: Dual specificity tyrosine-phosphorylation-regulated kinase 1A (Homo sapiens, UniProt Q13627);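 further: measured against DYRK1A as one member of a broad kinome profiling panel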
[12] = target: Mitogen-activated protein kinase 8 (Homo sapiens, UniProt P45983);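 further: value comes from one member of a kinome-wide kinase profiling panel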
[13] = target: Vascular endothelial growth factor receptor 2 (Homo sapiens, UniProt P35968)
[14] = target: Tyrosine-protein kinase JAK2 (Homo sapiens, UniProt O60674);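 further: JAK2 tested as one member of a kinase panel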
Sequence of Tyrosine-protein kinase JAK2 (O60674 whole entry): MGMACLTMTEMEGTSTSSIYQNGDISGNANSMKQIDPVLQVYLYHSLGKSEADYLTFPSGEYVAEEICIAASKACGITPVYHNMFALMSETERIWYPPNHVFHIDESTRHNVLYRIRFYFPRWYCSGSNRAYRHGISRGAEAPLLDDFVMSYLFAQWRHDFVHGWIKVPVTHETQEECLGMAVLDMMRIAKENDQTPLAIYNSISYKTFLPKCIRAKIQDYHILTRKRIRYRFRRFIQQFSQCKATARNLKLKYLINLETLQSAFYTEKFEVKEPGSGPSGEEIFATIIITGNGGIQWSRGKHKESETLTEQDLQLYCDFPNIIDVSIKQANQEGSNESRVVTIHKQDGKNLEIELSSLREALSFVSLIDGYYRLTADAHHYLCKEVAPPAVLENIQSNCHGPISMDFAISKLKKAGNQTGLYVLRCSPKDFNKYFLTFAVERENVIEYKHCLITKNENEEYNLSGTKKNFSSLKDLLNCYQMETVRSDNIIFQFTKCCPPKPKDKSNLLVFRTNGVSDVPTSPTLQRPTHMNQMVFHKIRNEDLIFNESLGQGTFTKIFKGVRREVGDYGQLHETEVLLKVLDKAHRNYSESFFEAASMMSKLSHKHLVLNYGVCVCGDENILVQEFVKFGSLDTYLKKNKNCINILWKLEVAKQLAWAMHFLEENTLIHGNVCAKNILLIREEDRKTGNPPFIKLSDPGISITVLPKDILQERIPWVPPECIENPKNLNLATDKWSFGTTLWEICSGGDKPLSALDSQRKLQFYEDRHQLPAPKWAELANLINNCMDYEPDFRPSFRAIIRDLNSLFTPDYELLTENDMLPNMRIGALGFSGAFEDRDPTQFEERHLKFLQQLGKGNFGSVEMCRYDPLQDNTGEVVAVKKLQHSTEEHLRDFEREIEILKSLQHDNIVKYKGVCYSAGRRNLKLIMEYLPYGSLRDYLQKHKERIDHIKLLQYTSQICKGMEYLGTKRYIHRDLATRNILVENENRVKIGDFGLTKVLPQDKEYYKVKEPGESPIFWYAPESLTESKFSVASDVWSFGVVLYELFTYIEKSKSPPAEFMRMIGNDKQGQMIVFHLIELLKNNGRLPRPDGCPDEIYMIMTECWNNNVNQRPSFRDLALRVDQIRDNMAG

Sequence of Vascular endothelial growth factor receptor 1 (P17948 whole entry): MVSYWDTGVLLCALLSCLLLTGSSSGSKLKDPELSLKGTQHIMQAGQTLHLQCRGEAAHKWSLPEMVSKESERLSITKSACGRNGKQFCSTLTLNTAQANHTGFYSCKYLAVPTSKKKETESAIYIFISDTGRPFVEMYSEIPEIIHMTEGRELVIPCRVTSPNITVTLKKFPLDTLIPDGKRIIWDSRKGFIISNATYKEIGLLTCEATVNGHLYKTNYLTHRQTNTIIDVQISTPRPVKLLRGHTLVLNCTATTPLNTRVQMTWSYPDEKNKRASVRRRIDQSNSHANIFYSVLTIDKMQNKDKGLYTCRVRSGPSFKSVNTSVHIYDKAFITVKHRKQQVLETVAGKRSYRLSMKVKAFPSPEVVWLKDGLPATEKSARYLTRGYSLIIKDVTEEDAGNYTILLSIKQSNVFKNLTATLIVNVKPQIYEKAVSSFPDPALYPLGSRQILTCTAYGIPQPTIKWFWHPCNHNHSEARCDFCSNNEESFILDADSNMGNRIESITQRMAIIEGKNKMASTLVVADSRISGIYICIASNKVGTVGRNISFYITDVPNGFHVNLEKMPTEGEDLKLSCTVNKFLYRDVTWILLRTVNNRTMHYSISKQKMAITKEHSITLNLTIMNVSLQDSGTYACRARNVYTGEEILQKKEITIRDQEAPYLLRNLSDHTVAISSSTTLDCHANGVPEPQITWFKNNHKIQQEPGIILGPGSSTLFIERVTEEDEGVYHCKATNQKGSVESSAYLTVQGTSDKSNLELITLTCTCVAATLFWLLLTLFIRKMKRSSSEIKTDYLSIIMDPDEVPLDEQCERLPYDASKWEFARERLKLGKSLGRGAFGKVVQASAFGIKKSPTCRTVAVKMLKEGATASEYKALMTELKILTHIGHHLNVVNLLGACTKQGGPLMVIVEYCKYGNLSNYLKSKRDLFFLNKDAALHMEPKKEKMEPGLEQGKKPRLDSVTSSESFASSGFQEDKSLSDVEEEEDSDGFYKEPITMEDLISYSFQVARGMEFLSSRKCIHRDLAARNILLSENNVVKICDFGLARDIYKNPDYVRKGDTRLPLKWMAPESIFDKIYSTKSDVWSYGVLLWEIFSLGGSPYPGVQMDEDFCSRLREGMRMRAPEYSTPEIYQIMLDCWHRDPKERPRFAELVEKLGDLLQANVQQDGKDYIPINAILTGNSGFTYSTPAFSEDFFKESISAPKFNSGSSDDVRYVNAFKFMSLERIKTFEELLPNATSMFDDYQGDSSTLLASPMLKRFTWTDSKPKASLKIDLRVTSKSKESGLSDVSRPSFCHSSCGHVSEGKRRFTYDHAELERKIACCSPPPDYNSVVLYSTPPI
Sequence of Macrophage colony-stimulating factor 1 receptor (P07333 whole entry): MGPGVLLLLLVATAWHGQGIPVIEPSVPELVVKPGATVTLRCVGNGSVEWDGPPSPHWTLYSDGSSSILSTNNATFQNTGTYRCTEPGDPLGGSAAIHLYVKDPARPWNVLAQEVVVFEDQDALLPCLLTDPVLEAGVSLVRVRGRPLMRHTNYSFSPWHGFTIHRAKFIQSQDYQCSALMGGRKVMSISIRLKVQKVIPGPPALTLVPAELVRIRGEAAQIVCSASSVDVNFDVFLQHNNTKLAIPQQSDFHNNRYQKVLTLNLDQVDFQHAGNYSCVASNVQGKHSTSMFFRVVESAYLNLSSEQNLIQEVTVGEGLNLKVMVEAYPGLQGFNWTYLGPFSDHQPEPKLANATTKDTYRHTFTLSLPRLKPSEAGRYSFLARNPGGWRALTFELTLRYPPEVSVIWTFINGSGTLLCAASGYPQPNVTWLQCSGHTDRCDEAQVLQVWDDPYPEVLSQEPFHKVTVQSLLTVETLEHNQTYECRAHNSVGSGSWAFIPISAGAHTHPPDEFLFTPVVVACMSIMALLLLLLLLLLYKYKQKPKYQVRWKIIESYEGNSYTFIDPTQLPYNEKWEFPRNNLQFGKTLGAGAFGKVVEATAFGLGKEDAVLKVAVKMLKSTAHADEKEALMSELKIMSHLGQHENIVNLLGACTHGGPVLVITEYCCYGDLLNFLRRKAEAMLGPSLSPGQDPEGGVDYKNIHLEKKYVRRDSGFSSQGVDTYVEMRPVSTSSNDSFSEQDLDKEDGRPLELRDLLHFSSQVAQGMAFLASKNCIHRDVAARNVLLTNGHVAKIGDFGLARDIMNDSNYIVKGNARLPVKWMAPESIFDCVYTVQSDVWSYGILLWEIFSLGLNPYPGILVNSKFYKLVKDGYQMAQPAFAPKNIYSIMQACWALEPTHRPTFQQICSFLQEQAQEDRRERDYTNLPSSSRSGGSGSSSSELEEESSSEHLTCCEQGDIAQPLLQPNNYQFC

| Ki [1] | Ki [2] | Ki [3] | Ki [4] | Ki [5] | Ki [6] | Ki [7] | Ki [8] | Ki (Aurora kinase B) | Ki [9] | Ki [10] | Ki [11] | Ki [12] | Ki [13] | Ki [14] | Structure (SMILES) |
| --- | --- | --- | --- | --- | --- | --- | --- | --- | --- | --- | --- | --- | --- | --- | --- |
| 39.8 µM (active) | 79.4 µM (active) | 63.1 µM (active) | 50.1 µM (active) | 39.8 µM (active) | 63.1 µM (active) | 6.31 µM (active) | 50.1 µM (active) | 31.6 µM (active) | 50.1 µM (active) | 39.8 µM (active) | 5.01 µM (active) | 20 µM (active) | 39.8 µM (active) | 31.6 µM (active) | CC(C)(O)c1cn(-c2ccc3[nH]ncc3c2)nn1 |
| 0.1 µM (active) | > 0.398 µM (inactive) | – | 0.251 µM (active) | 0.0631 µM (active) | 2 µM (active) | 0.126 µM (active) | 0.0501 µM (active) | 2 µM (active) | 0.00631 µM (active) | 3.98 µM (active) | 0.00316 µM (active) | 0.1 µM (active) | > 7.94 µM (inactive) | 0.251 µM (active) | NC1CCC(Nc2nccc(-c3c[nH]c4ncccc34)n2)CC1 (configuration not stated) |
| > 100 µM (inactive) | 25.1 µM (active) | 79.4 µM (active) | 15.8 µM (active) | 20 µM (active) | 39.8 µM (active) | 31.6 µM (active) | 39.8 µM (active) | 20 µM (active) | 12.6 µM (active) | 20 µM (active) | 0.398 µM (active) | 12.6 µM (active) | 7.94 µM (active) | 25.1 µM (active) | OCc1cc(-c2ccc3[nH]ncc3c2)on1 |

| Structure (SMILES) | Ki [1] | Ki [2] | Ki [3] | Ki [4] | Ki [5] | Ki [6] | Ki [7] | Ki [8] | Ki (Aurora kinase B) | Ki [9] | Ki [10] | Ki [11] | Ki [12] | Ki [13] | Ki [14] |
| --- | --- | --- | --- | --- | --- | --- | --- | --- | --- | --- | --- | --- | --- | --- | --- |
| COC(C(=O)N1Cc2[nH]nc(NC(=O)c3ccc(N4CCN(C)CC4)cc3)c2C1)c1ccccc1 (configuration not stated) | 0.158 µM (active) | 0.0398 µM (active) | > 6.31 µM (inactive) | – | – | – | – | – | – | – | – | – | – | – | – |

Source: ChEMBL document CHEMBL1201862, “PubChem BioAssay data set” (2004)
